Results taken from ChEMBL document CHEMBL4619727, “Induced osteoblast differentiation by amide derivatives of stilbene: The possible osteogenic agents” (Bioorg Med Chem Lett, 2020).
Each block holds one molecule with its values, some of them ahead of it. Calls of active or inactive are those of the source. The rule behind the calls is not given here.

Legend:
MCF7 = experiment: Cytotoxicity against human MCF7 cells assessed as cell growth inhibition at 30 ug/ml by MTT assay relative to control; type: functional; details: read-out: GI
[1] = target: Estrogen receptor beta (Mus musculus) (UniProt O08537); experiment: Induction of ESR2-mediated osteoblast differentiation in mouse calvarial osteoblast assessed as increase in ALP activity at 1 pM measured after 48 hrs by spectrophotometric analysis; type: cell-based
[2] = target: Estrogen receptor beta (Mus musculus) (UniProt O08537); experiment: Induction of ESR2-mediated osteoblast differentiation in mouse calvarial osteoblast assessed as increase in ALP activity at 1 nM measured after 48 hrs by spectrophotometric analysis; type: cell-based
Mus musculus [3] = experiment: Anti-osteoporosis activity in ovariectomized BALB/c mouse assessed as increase in trabecular number in femur bone at 1 mg/kg, po via gavage administered for 1 month by microCT imaging analysis; type: functional, organism-based
Mus musculus [4] = experiment: Anti-osteoporosis activity in ovariectomized BALB/c mouse assessed as increase in femur bone volume density at 1 mg/kg, po via gavage administered for 1 month by microCT imaging analysis; type: functional, organism-based
Mus musculus [5] = experiment: Anti-osteoporosis activity in ovariectomized BALB/c mouse assessed as reduction in trabecular pattern factor in femur bone at 1 mg/kg, po via gavage administered for 1 month by microCT imaging analysis; type: functional, organism-based
Mus musculus [6] = experiment: Anti-osteoporosis activity in ovariectomized BALB/c mouse assessed as reduction in trabecular spacing in femur bone at 1 mg/kg, po via gavage administered for 1 month by microCT imaging analysis; type: functional, organism-based
Mus musculus [7] = experiment: Anti-osteoporosis activity in ovariectomized BALB/c mouse assessed as increase in trabecular thickness in femur bone at 1 mg/kg, po via gavage administered for 1 month by microCT imaging analysis; type: functional, organism-based
[8] = target: Estrogen receptor beta (Mus musculus) (UniProt O08537); experiment: Induction of ESR2-mediated osteoblast differentiation in mouse calvarial osteoblast assessed as formation of mineralized nodule at 1 to 10 uM measured after 21 days by alizarin red staining based assay; type: cell-based
Calvarial osteoblast [9] = experiment: Osteo-blastogenic activity in mouse calvarial osteoblast assessed as upregulation of Runx2 mRNA expression at 1 pM to 100 pM measured after 48 hrs by qPCR analysis; type: functional, cell-based
[10] = tested on: Peritoneal macrophage cell; experiment: Cytotoxicity against peritoneal macrophage cells (unknown origin) at 5 to 20 uM by MTT assay; type: cell-based
Calvarial osteoblast [11] = experiment: Upregulation of ALP mRNA expression in mouse calvarial osteoblast at 1 pM to 100 pM measured after 24 to 48 hrs by qPCR analysis; type: functional, cell-based
Mus musculus [12] = experiment: Anti-osteoporosis activity in ovariectomized BALB/c mouse assessed as increase in trabecular thickness in femur bone at 1 to 5 mg/kg, po via gavage administered for 1 month by microCT imaging analysis; type: functional, organism-based
Calvarial osteoblast [13] = experiment: Upregulation of ESR2 protein level in mouse calvarial osteoblast at 1 to 100 pM measured after 48 hrs by Western blot analysis; type: functional, cell-based
Mus musculus [14] = experiment: Anti-osteoporosis activity in ovariectomized BALB/c mouse assessed as increase in trabecular number in femur bone at 1 to 5 mg/kg, po via gavage administered for 1 month by microCT imaging analysis; type: functional, organism-based
Mus musculus [15] = experiment: Anti-osteoporosis activity in ovariectomized BALB/c mouse at 5 mg/kg, po via gavage administered for 1 month by microCT imaging analysis; type: functional, organism-based
Mus musculus [16] = experiment: Anti-osteoporosis activity in ovariectomized BALB/c mouse assessed as increase in femur bone volume density at 1 to 5 mg/kg, po via gavage administered for 1 month by microCT imaging analysis; type: functional, organism-based
Calvarial osteoblast [17] = experiment: Upregulation of ESR1 protein level in mouse calvarial osteoblast at 1 to 100 pM measured after 48 hrs by Western blot analysis; type: functional, cell-based
Mus musculus [18] = experiment: Anti-osteoporosis activity in ovariectomized BALB/c mouse assessed as reduction in trabecular spacing in femur bone at 1 to 5 mg/kg, po via gavage administered for 1 month by microCT imaging analysis; type: functional, organism-based
Calvarial osteoblast [19] = experiment: Osteo-blastogenic activity in mouse calvarial osteoblast assessed as upregulation of BMP2 mRNA expression at 1 pM to 100 pM measured after 48 hrs by qPCR analysis; type: functional, cell-based
Mus musculus [20] = experiment: Anti-osteoporosis activity in ovariectomized BALB/c mouse assessed as reduction in trabecular pattern factor in femur bone at 1 to 5 mg/kg, po via gavage administered for 1 month by microCT imaging analysis; type: functional, organism-based
[21] = target: Estrogen receptor beta (Mus musculus) (UniProt O08537); experiment: Induction of ESR2-mediated osteoblast differentiation in mouse calvarial osteoblast assessed as increase in ALP activity at 100 pM measured after 48 hrs by spectrophotometric analysis; type: cell-based

Chain of Estrogen receptor beta (Mus musculus) (O08537 whole entry): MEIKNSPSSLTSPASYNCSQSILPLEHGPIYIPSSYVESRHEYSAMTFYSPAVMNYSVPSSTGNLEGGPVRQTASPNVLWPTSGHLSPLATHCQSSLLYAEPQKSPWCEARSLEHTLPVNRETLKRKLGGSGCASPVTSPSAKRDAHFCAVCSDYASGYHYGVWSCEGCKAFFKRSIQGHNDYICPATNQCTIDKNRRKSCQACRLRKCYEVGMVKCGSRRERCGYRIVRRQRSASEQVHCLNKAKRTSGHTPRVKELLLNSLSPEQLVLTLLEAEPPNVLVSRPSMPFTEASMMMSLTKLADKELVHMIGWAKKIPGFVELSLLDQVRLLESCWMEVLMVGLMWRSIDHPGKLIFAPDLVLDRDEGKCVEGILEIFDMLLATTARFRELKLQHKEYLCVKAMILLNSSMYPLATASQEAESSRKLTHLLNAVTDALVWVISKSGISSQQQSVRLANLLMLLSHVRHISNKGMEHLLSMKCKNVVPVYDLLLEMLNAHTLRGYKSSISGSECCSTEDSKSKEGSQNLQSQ

Structure (SMILES): COc1ccc(/C(C)=C(\CCCC(=O)N2CCCC2)c2ccccc2)cc1
inhibition of growth at 30 µg/mL (MCF7): 48.4%

Activity [1]: Active
Structure (SMILES): COc1ccc(/C(C)=C(\CCCCCC(=O)N2CCCC2)c2ccccc2)cc1
inhibition of growth at 30 µg/mL (MCF7): 30 to 48%

Structure (SMILES): COc1ccc(/C(=C/c2ccccc2)CC(=O)NCCc2ccccn2)cc1
inhibition of growth at 30 µg/mL (MCF7): 30 to 48%

Activity [2]: Active
Structure (SMILES): COc1ccc(/C(=C/c2ccccc2)CC(=O)N(C(C)C)C(C)C)cc1

Structure (SMILES): O=C(c1ccc(OCCN2CCCCC2)cc1)c1c(-c2ccc(O)cc2)sc2cc(O)ccc12
Activity (Mus musculus [3]): Active
Activity (Mus musculus [4]): Active
Activity (Mus musculus [5]): Active
Activity (Mus musculus [6]): Active
Activity (Mus musculus [7]): Active

Structure (SMILES): COc1ccc(/C(C)=C(\CCCC(=O)NCc2ccccn2)c2ccccc2)cc1
inhibition of growth at 30 µg/mL (MCF7): 30 to 48%

Activity [1]: Active
Structure (SMILES): CCCCCN(C)C(=O)C/C(=C\c1ccccc1)c1ccc(OC)cc1
inhibition of growth at 30 µg/mL (MCF7): 30 to 48%

Structure (SMILES): COc1ccc(/C(=C/c2ccccc2)CC(=O)NC(C)C)cc1
inhibition of growth at 30 µg/mL (MCF7): 30 to 48%

Structure (SMILES): COc1ccc(/C(=C/c2ccccc2)CC(=O)N2CCCC2)cc1
inhibition of growth at 30 µg/mL (MCF7): 30 to 48%

Activity [8]: Active
Activity [1]: Active
Structure (SMILES): CCCCN(C)C(=O)CCCCC/C(=C(/C)c1ccc(OC)cc1)c1ccccc1
Activity (Calvarial osteoblast [9]): Active
Activity [10]: Non-Toxic
Activity (Calvarial osteoblast [11]): Active
Activity (Mus musculus [12]): Active
inhibition of growth at 30 µg/mL (MCF7): 32.1%
Activity (Calvarial osteoblast [13]): Active
Activity (Mus musculus [14]): Active
Activity (Mus musculus [15]): Active
Activity (Mus musculus [16]): Active
Activity (Calvarial osteoblast [17]): Active
Activity (Mus musculus [18]): Active
Activity (Calvarial osteoblast [19]): Active
Activity (Mus musculus [20]): Active

Activity [1]: Active
Structure (SMILES): CCCCN(C)C(=O)CCC/C(=C(/C)c1ccc(OC)cc1)c1ccccc1

Structure (SMILES): COc1ccc(/C(C)=C(\CCCCCC(=O)NCc2ccccn2)c2ccccc2)cc1
inhibition of growth at 30 µg/mL (MCF7): 30 to 48%

Structure (SMILES): COc1ccc(/C(C)=C(\CCCCCC(=O)NCCc2ccccn2)c2ccccc2)cc1
inhibition of growth at 30 µg/mL (MCF7): 30 to 48%

Activity [21]: Active
Structure (SMILES): COc1ccc(/C(C)=C(\CCCC(=O)NCCc2ccccn2)c2ccccc2)cc1
